Here are results for 28 compounds from BindingDB's records for patent US10821115 (Amgen, 2020).

In this assay the target is T1, Induced myeloid leukemia cell differentiation protein Mcl-1 [171-327] (Homo sapiens, UniProt Q07820).
T1 construct: 171-327
The experiment in a line: Time-Resolved Fluorescence Resonance Energy Transfer (TR-FRET) Assay. Background: In TR-FRET formats the signal depends on donor and acceptor labels being close together.

“And” between values parts separate entries of the source, which are not always exact repeats. Identical values can stand only once.

T1 sequence (Q07820 171-327): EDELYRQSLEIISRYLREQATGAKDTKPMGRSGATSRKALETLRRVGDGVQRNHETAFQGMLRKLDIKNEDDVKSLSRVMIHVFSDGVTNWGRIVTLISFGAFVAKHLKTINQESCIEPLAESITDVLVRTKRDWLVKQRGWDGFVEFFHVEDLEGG
Experimental: The inhibition of the Mcl-1/Bim interaction was measured using a time-resolved fluorescence resonance energy transfer (TR-FRET) assay. […] A biotinylated peptide derived from human Bim (residues 51-76) was purchased from CPC Scientific (San Jose, Calif.). The TR-FRET assay was conducted in a 384-well white OptiPlate (PerkinElmer, Waltham, Mass.) in a total volume of 40 uL. […] The reaction plates were further incubated overnight and then were read on an Envision multimode reader (PerkinElmer). […] The IC50 values of test compounds were determined from duplicate data by analyzing competition curves using a four-parameter sigmoidal model in GraphPad Prism.

Compound `CO[C@@]1(CN2CCN([C@H](CCO)CC(=O)O)CC2)/C=C/C[C@H](C)[C@@H](C)S(=O)(=O)NC(=O)c2ccc3c(c2)N(C[C@@H]2CC[C@H]21)C[C@@]1(CCCc2cc(Cl)ccc21)CO3` [US10821115, Example 278] displayed a concentration for half-maximal inhibition (IC50) of 0.039 nM.

Compound `COC(=O)[C@H](NC(=O)C[C@]1(OC)/C=C/C[C@H](C)[C@@H](C)S(=O)(=O)NC(=O)c2ccc3c(c2)N(C[C@@H]2CC[C@H]21)C[C@@]1(CCCc2cc(Cl)ccc21)CO3)[C@@H](C)O` [US10821115, Example 100581] registered an IC50 of 0.363 nM.

Compound `CO[C@@]1(CN2CCN(CC(CO)CO)CC2)/C=C/C[C@H](C)[C@@H](C)S(=O)(=O)NC(=O)c2ccc3c(c2)N(C[C@@H]2CC[C@H]21)C[C@@]1(CCCc2cc(Cl)ccc21)CO3` [US10821115, Example 310] showed a half-maximal inhibitory concentration (IC50) of 0.117 nM.

Regarding `CO[C@@]1(CN2CCN([C@H]3CCOC(=O)C3)CC2)/C=C/C[C@H](C)[C@@H](C)S(=O)(=O)NC(=O)c2ccc3c(c2)N(C[C@@H]2CC[C@H]21)C[C@@]1(CCCc2cc(Cl)ccc21)CO3` [US10821115, Example 271], 0.031 nM corresponded to half-maximal inhibition (IC50).

Compound `CO[C@@]1(CN2CCN(CCS(C)(=O)=O)CC2)/C=C/C[C@H](C)[C@@H](C)S(=O)(=O)NC(=O)c2ccc3c(c2)N(C[C@@H]2CC[C@H]21)C[C@@]1(CCCc2cc(Cl)ccc21)CO3` [US10821115, Example 81] registered an IC50 of 0.14 nM.

Consider `CO[C@@]1(CC(=O)NCCO)/C=C/C[C@H](C)[C@@H](C)S(=O)(=O)NC(=O)c2ccc3c(c2)N(C[C@@H]2CC[C@H]21)C[C@@]1(CCCc2cc(Cl)ccc21)CO3` [US10821115, Example 100465], for which half-maximal inhibition (IC50) was put at 0.121 nM. This IC50 and that of the compound before are within 1.5-fold of each other.

On to `C[C@@H]1[C@@H](C)C/C=C/[C@@](O)(c2ccc(F)nc2)[C@@H]2CC[C@H]2CN2C[C@@]3(CCCc4cc(Cl)ccc43)COc3ccc(cc32)C(=O)NS1(=O)=O` (single isomer, unassigned) [US10821115, Example 100420], for which the IC50 was 0.112 nM.

The compound `CO[C@@]1(c2cccnn2)/C=C/C[C@H](C)[C@@H](C)S(=O)(=O)N(C)C(=O)c2ccc3c(c2)N(C[C@@H]2CC[C@H]21)C[C@@]1(CCCc2cc(Cl)ccc21)CO3` [US10821115, Example 100350] gave an IC50 of 0.489 nM. This IC50 is about 4.4-fold higher than that of the compound before.

As to `CO[C@@]1(CC(=O)N(C)C)/C=C/C[C@H](C)[C@@H](C)S(=O)(=O)NC(=O)c2ccc3c(c2)N(C[C@@H]2CC[C@H]21)C[C@@]1(CCCc2cc(Cl)ccc21)CO3` [US10821115, Example 100135], inhibition was half-maximal at 0.173 nM (IC50).

As to `CO[C@@]1(CC(=O)NCc2ncco2)/C=C/C[C@H](C)[C@@H](C)S(=O)(=O)NC(=O)c2ccc3c(c2)N(C[C@@H]2CC[C@H]21)C[C@@]1(CCCc2cc(Cl)ccc21)CO3` [US10821115, Example 100577], half-maximal inhibition (IC50) required 0.045 nM.

Compound `CO[C@]1(CN2CCN(C3(C)COC3)CC2)/C=C/C[C@H](C)[C@@H](C)S(=O)(=O)NC(=O)c2ccc3c(c2)N(C[C@@H]2CC[C@H]21)C[C@@]1(CCCc2cc(Cl)ccc21)CO3` [US10821115, Example 319] came in with a half-maximal inhibitory concentration (IC50) of 0.081 nM. Against the preceding compound, the IC50 is about 1.8-fold higher.

As to `CO[C@@]1(CN2CCC(N3CCOCC3)CC2)/C=C/C[C@H](C)[C@@H](C)S(=O)(=O)NC(=O)c2ccc3c(c2)N(C[C@@H]2CC[C@H]21)C[C@@]1(CCCc2cc(Cl)ccc21)CO3` [US10821115, Example 263], 0.147 nM corresponded to half-maximal inhibition (IC50).

Compound `CCN(CC)C(=O)C[C@]1(OC)/C=C/C[C@H](C)[C@@H](C)S(=O)(=O)NC(=O)c2ccc3c(c2)N(C[C@@H]2CC[C@H]21)C[C@@]1(CCCc2cc(Cl)ccc21)CO3` [US10821115, Example 100347] came in with an IC50 of 0.689 nM. This IC50 lies about 4.7-fold higher than the previous one.

`CO[C@@]1(CC(N)=O)/C=C/C[C@H](C)[C@@H](C)S(=O)(=O)NC(=O)c2ccc3c(c2)N(C[C@@H]2CC[C@H]21)C[C@@]1(CCCc2cc(Cl)ccc21)CO3` [US10821115, Example 100589] gave an IC50 of 1.83 nM.

In the case of `COC(=O)C(C)(C)NC(=O)C[C@]1(OC)/C=C/C[C@H](C)[C@@H](C)S(=O)(=O)NC(=O)c2ccc3c(c2)N(C[C@@H]2CC[C@H]21)C[C@@]1(CCCc2cc(Cl)ccc21)CO3` [US10821115, Example 100544], the concentration for half-maximal inhibition (IC50) came out at 0.171 nM.

`CO[C@@]1(CN2CCN(C3CCOCC3)CC2)/C=C/C[C@H](C)[C@@H](C)S(=O)(=O)NC(=O)c2ccc3c(c2)N(C[C@@H]2CC[C@H]21)C[C@@]1(CCCc2cc(Cl)ccc21)CO3` [US10821115, Example 262] had an IC50 of 0.093 nM. Against the preceding compound, the IC50 is about 1.8-fold lower.

The compound `CCO[C@@]1(CN2CCC(N(CCOC)CCOC)CC2)/C=C/C[C@H](C)[C@@H](C)S(=O)(=O)NC(=O)c2ccc3c(c2)N(C[C@@H]2CC[C@H]21)C[C@@]1(CCCc2cc(Cl)ccc21)CO3` [US10821115, Example 312] returned a concentration for half-maximal inhibition (IC50) of 0.576 nM.

For the compound `CO[C@]1(c2cccc(F)n2)/C=C/C[C@H](C)[C@@H](C)S(=O)(=O)NC(=O)c2ccc3c(c2)N(C[C@@H]2CC[C@H]21)C[C@@]1(CCCc2cc(Cl)ccc21)CO3` [US10821115, Example 100339], the IC50 worked out at 0.779 nM.

For the compound `COCC(COC)N1CCN(C[C@]2(OC)/C=C/C[C@H](C)[C@@H](C)S(=O)(=O)NC(=O)c3ccc4c(c3)N(C[C@@H]3CC[C@H]32)C[C@@]2(CCCc3cc(Cl)ccc32)CO4)CC1` [US10821115, Example 287], the half-maximal inhibitory concentration (IC50) turned out to be 0.137 nM. This IC50 lies about 5.7-fold lower than the previous one.

The compound `CO[C@]1(CN2CCN(CC(F)(F)F)CC2)/C=C/C[C@H](C)[C@@H](C)S(=O)(=O)NC(=O)c2ccc3c(c2)N(C[C@@H]2CC[C@H]21)C[C@@]1(CCCc2cc(Cl)ccc21)CO3` [US10821115, Example 93] showed a 50% inhibitory concentration (IC50) of 0.53 nM.

`C[C@@H]1[C@@H](C)C/C=C/[C@](O)(C#CCCc2ccccn2)[C@@H]2CC[C@H]2CN2C[C@@]3(CCCc4cc(Cl)ccc43)COc3ccc(cc32)C(=O)NS1(=O)=O` [US10821115, Example 100455] gave an IC50 of 0.087 nM. Compared with the last compound, the IC50 is about 6.1-fold lower.

`CO[C@@]1(CC(=O)N(C)C2CC2)/C=C/C[C@H](C)[C@@H](C)S(=O)(=O)NC(=O)c2ccc3c(c2)N(C[C@@H]2CC[C@H]21)C[C@@]1(CCCc2cc(Cl)ccc21)CO3` [US10821115, Example 100374] came in with a 50% inhibitory concentration (IC50) of 0.289 nM.

As to `CO[C@]1(c2cccnc2F)/C=C/C[C@H](C)[C@@H](C)S(=O)(=O)NC(=O)c2ccc3c(c2)N(C[C@@H]2CC[C@H]21)C[C@@]1(CCCc2cc(Cl)ccc21)CO3` [US10821115, Example 100324], the IC50 was 0.244 nM and 0.182 nM.

`CO[C@@]1(CC(=O)NC(C)(C)C(=O)O)/C=C/C[C@H](C)[C@@H](C)S(=O)(=O)NC(=O)c2ccc3c(c2)N(C[C@@H]2CC[C@H]21)C[C@@]1(CCCc2cc(Cl)ccc21)CO3` [US10821115, Example 100546] gave an IC50 of 0.084 nM.

For `CCO[C@]1(CN2CCN(C(COC)COC)CC2)/C=C/C[C@H](C)[C@@H](C)S(=O)(=O)NC(=O)c2ccc3c(c2)N(C[C@@H]2CC[C@H]21)C[C@@]1(CCCc2cc(Cl)ccc21)CO3` [US10821115, Example 116], the 50% inhibitory concentration (IC50) is 0.244 nM.

Consider `COCCN(CCOC)C1CCN(C[C@]2(OC)/C=C/C[C@H](C)[C@@H](C)S(=O)(=O)NC(=O)c3ccc4c(c3)N(C[C@@H]3CC[C@H]32)C[C@@]2(CCCc3cc(Cl)ccc32)CO4)CC1` [US10821115, Example 308], for which the half-inhibitory concentration (IC50) is 0.111 nM.

For `COC(=O)CNC(=O)C[C@]1(OC)/C=C/C[C@H](C)[C@@H](C)S(=O)(=O)NC(=O)c2ccc3c(c2)N(C[C@@H]2CC[C@H]21)C[C@@]1(CCCc2cc(Cl)ccc21)CO3` [US10821115, Example 100550], half-maximal inhibition (IC50) required 0.059 nM. Compared with the last compound, the IC50 is about 1.9-fold lower.

The compound `CCO[C@@]1(CN2CCN(C3(C)COC3)CC2)/C=C/C[C@H](C)[C@@H](C)S(=O)(=O)NC(=O)c2ccc3c(c2)N(C[C@@H]2CC[C@H]21)C[C@@]1(CCCc2cc(Cl)ccc21)CO3` [US10821115, Example 311] registered an IC50 of 0.324 nM.

As a reminder, the IC50 is the midpoint of a concentration-inhibition curve. High values mean weaker potency, low ones greater potency.
